Experimental data as given in patent publication US6737383B1, “Herbicidal oxadiazolidines” (priority 1999, dated 2004).

Experiments:
morningglory = assay: Test B pre/postemergence morningglory; type: in vivo, Ipomoea hederacea
Method in brief: (§1)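 Herbicidal effect was estimated by eye on a ten-point control scale after plants spent twelve to sixteen days in a greenhouse following soil or foliar treatment. Foliar sprays targeted plants at one to four leaves; all doses were formulated in a non-phytotoxic solvent with surfactant.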

duck salad = assay: Test B flood test duck salad; type: in vivo, Heteranthera limosa; details: for Plant response rating, Ducksalad (0 to 10 scale, 0 is no effect, 10 is complete control) / Ducksalad plant response rating (0 to 10 scale, 0 is no effect, 10 is complete control): visual evaluation after twelve to sixteen days; for Ducksalad plant response rating (0 to 10 scale, 0 is no effect, 10 is complete control): under heading Pre-emergence
Method in brief: (§2)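 Read-out is a visual response score from 0 (no effect) to 10 (complete control), assigned by comparison with untreated controls. Treatment was applied at the 2-leaf stage, and plants stayed in the greenhouse for twelve to sixteen days before scoring.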

rice = assay: Test B flood test rice; type: in vivo, Oryza sativa; details: for Plant response rating, Rice (0 to 10 scale, 0 is no effect, 10 is complete control) / Rice plant response rating (0 to 10 scale, 0 is no effect, 10 is complete control): visual evaluation after twelve to sixteen days; for Rice plant response rating (0 to 10 scale, 0 is no effect, 10 is complete control): under heading Pre-emergence
Method in brief: as §2

giant foxtail = assay: Test B pre/postemergence giant foxtail; type: in vivo, Setaria faberii
Method in brief: as §1

[1] = Postemergence, Rate 62 g/ha, scale 0 to 10, 0 is no effect, 10 is complete control
[2] = Postemergence, Rate 125 g/ha, scale of 0 to 10 where 0 is no effect and 10 is complete control
[3] = Postemergence, Rate 250 g/ha, scale of 0 to 10, 0 is no effect, 10 is complete control
[4] = Postemergence, Rate 500 g/ha, scale of 0 to 10 where 0 is no effect and 10 is complete control
[5] = Preemergence, Rate 62 g/ha, scale 0 to 10 (0 no effect, 10 complete control)
[6] = Preemergence, Rate 125 g/ha, scale of 0 to 10 where 0 is no effect and 10 is complete control
[7] = Preemergence, Rate 250 g/ha, scale 0 to 10 (0 no effect, 10 complete control)
[8] = Preemergence, Rate 500 g/ha, scale of 0 to 10 where 0 is no effect and 10 is complete control
[9] = Rate 62 g/ha, flood test species, Pre-emergence
[10] = Rate 125 g/ha, flood test species
[11] = Rate 250 g/ha, Pre-emergence (flood test species), scale 0 to 10, 0 is no effect, 10 is complete control
[12] = Rate 500 g/ha, Pre-emergence section of Table B, 0 to 10 scale (0 no effect, 10 complete control)
[13] = Postemergence, Rate 125 g/ha, scale 0 to 10, 0 is no effect, 10 is complete control
[14] = Preemergence, Rate 62 g/ha, scale of 0 to 10 where 0 is no effect and 10 is complete control
[15] = Preemergence, Rate 250 g/ha, scale of 0 to 10 where 0 is no effect and 10 is complete control
[16] = Rate 62 g/ha, Postemergence, scale of 0 to 10 where 0 is no effect and 10 is complete control
[17] = Rate 500 g/ha, Postemergence, scale 0 to 10, 0 no effect, 10 complete control
[18] = Rate 62 g/ha, headed Pre-emergence (flood test species), scale 0 to 10 (0 no effect, 10 complete control)
[19] = Rate 125 g/ha, Pre-emergence, flood test species, scale 0 to 10 where 0 is no effect and 10 is complete control
[20] = Rate 250 g/ha, Pre-emergence, flood-test species, scale 0 to 10, 0 is no effect, 10 is complete control
[21] = Rate 500 g/ha, Pre-emergence, flood test species, scale 0 to 10 (0 no effect, 10 complete control)
[22] = Postemergence, Rate 250 g/ha, scale 0 to 10, 0 no effect, 10 complete control
[23] = Postemergence, Rate 1000 g/ha, scale 0 to 10 (0 no effect, 10 complete control)
[24] = Preemergence, Rate 125 g/ha, scale 0 to 10 (0 no effect, 10 complete control)
[25] = Preemergence, Rate 500 g/ha, scale 0 (no effect) to 10 (complete control)
[26] = Rate 1000 g/ha, Preemergence, scale 0 to 10 (0 no effect, 10 complete control)
[27] = Postemergence (flood test species), Rate 125 g/ha, scale of 0 to 10 where 0 is no effect and 10 is complete control
[28] = Rate 62 g/ha, Postemergence section, flood test species, scale of 0 to 10 where 0 is no effect and 10 is complete control
[29] = Rate 500 g/ha, listed under Postemergence (flood test species), scale 0 to 10, 0 no effect, 10 complete control
[30] = Preemergence, Rate 125 g/ha, 0 is no effect, 10 is complete control
[31] = Preemergence, Rate 250 g/ha, scale 0 to 10, 0 is no effect, 10 is complete control
[32] = Rate 125 g/ha, Postemergence, scale 0 to 10
[33] = Rate 500 g/ha, Postemergence, scale 0 to 10
[34] = Rate 500 g/ha, headed Pre-emergence (flood test species), scale 0 to 10 (0 no effect, 10 complete control)
[35] = Postemergence, Rate 250 g/ha, scale 0 to 10
[36] = Preemergence, Rate 500 g/ha, scale 0 to 10, 0 is no effect, 10 is complete control
[37] = Rate 62 g/ha, Postemergence, scale 0 to 10 (0 no effect, 10 complete control)
[38] = Rate 125 g/ha, Postemergence, scale 0 to 10, 0 is no effect, 10 is complete control

CC(C)N(C(=O)n1oc(=O)n(CC2CCCCO2)c1=O)c1ccc(F)cc1 (stereo not drawn) [Compound 624]
Plant response rating, Morningglory (morningglory; [1]): 1
Plant response rating, Morningglory (morningglory; [2]): 1
Morningglory plant response rating (morningglory; [3]): 1
Plant response rating, Morningglory (morningglory; [4]): 2
Morningglory plant response rating (morningglory; [5]): 0
Morningglory plant response rating (morningglory; [6]): 0
Plant response rating, Morningglory (morningglory; [7]): 0
Plant response rating, Morningglory (morningglory; [8]): 0
Plant response rating, Ducksalad (0 to 10 scale, 0 is no effect, 10 is complete control) (duck salad; [9]): 0
Ducksalad plant response rating (0 to 10 scale, 0 is no effect, 10 is complete control) (duck salad; [10]): 0
Ducksalad plant response rating (duck salad; [11]): 0
Ducksalad plant response rating (duck salad; [12]): 0
Plant response rating, Rice (0 to 10 scale, 0 is no effect, 10 is complete control) (rice; [9]): 0
Rice plant response rating (0 to 10 scale, 0 is no effect, 10 is complete control) (rice; [10]): 0
Rice plant response rating (rice; [11]): 0
Rice plant response rating (rice; [12]): 0
Plant response rating, Giant foxtail (giant foxtail; [1]): 4
Plant response rating, Giant foxtail (giant foxtail; [2]): 8
Giant foxtail plant response rating (giant foxtail; [3]): 8
Plant response rating, Giant foxtail (giant foxtail; [4]): 9
Giant foxtail plant response rating (giant foxtail; [5]): 10
Giant foxtail plant response rating (giant foxtail; [6]): 10
Plant response rating, Giant foxtail (giant foxtail; [7]): 10
Plant response rating, Giant foxtail (giant foxtail; [8]): 10

CC(C)N(C(=O)n1oc(=O)n(CC2=NOCCC2)c1=O)c1ccc(F)cc1 [Compound 601]
Plant response rating, Morningglory (morningglory; [1]): 1
Plant response rating, Morningglory (morningglory; [2]): 1
Morningglory plant response rating (morningglory; [3]): 1
Plant response rating, Morningglory (morningglory; [4]): 1
Morningglory plant response rating (morningglory; [5]): 0
Morningglory plant response rating (morningglory; [6]): 0
Plant response rating, Morningglory (morningglory; [8]): 0
Plant response rating, Ducksalad (0 to 10 scale, 0 is no effect, 10 is complete control) (duck salad; [9]): 0
Ducksalad plant response rating (0 to 10 scale, 0 is no effect, 10 is complete control) (duck salad; [10]): 0
Ducksalad plant response rating (duck salad; [11]): 0
Ducksalad plant response rating (duck salad; [12]): 0
Plant response rating, Rice (0 to 10 scale, 0 is no effect, 10 is complete control) (rice; [9]): 0
Rice plant response rating (0 to 10 scale, 0 is no effect, 10 is complete control) (rice; [10]): 0
Rice plant response rating (rice; [11]): 0
Rice plant response rating (rice; [12]): 0
Plant response rating, Giant foxtail (giant foxtail; [1]): 7
Plant response rating, Giant foxtail (giant foxtail; [2]): 7
Giant foxtail plant response rating (giant foxtail; [3]): 7
Plant response rating, Giant foxtail (giant foxtail; [4]): 9
Giant foxtail plant response rating (giant foxtail; [5]): 10
Giant foxtail plant response rating (giant foxtail; [6]): 10
Plant response rating, Giant foxtail (giant foxtail; [8]): 10

CC(C)N(C(=O)n1oc(=O)n(C2CCCCCC2)c1=O)c1ccc(Cl)cc1 [Compound 339]
Plant response rating, Morningglory (morningglory; [13]): 2
Morningglory plant response rating (morningglory; [14]): 0
Morningglory plant response rating (0 to 10 scale) (morningglory; Preemergence, Rate 125 g/ha): 0
Morningglory plant response rating (morningglory; [15]): 0
Morningglory plant response rating (morningglory; [8]): 0
Morningglory plant response rating (morningglory; [16]): 2
Plant response rating, Morningglory (morningglory; [17]): 10
Ducksalad plant response rating (duck salad; [18]): 0
Ducksalad plant response rating (duck salad; [19]): 0
Ducksalad plant response rating (duck salad; [20]): 0
Ducksalad plant response rating (duck salad; [21]): 3
Rice plant response rating (rice; [18]): 0
Rice plant response rating (rice; [19]): 0
Rice plant response rating (rice; [20]): 0
Rice plant response rating (rice; [21]): 1
Plant response rating, Giant foxtail (giant foxtail; [13]): 0
Giant foxtail plant response rating (giant foxtail; [14]): 1
Giant foxtail plant response rating (0 to 10 scale) (giant foxtail; Preemergence, Rate 125 g/ha): 3
Giant foxtail plant response rating (giant foxtail; [15]): 9
Giant foxtail plant response rating (giant foxtail; [8]): 10
Giant foxtail plant response rating (giant foxtail; [16]): 0
Plant response rating, Giant foxtail (giant foxtail; [17]): 0

CC(C)N(C(=O)n1oc(=O)n(C2CCCCC2C(F)(F)F)c1=O)c1ccc(F)cc1 (stereo not drawn) [Compound 99]
Morningglory plant response rating (morningglory; [2]): 3
Morningglory plant response rating (morningglory; [22]): 3
Morningglory plant response rating (morningglory; [23]): 9
Morningglory plant response rating (morningglory; [5]): 0
Plant response rating, Morningglory (morningglory; [24]): 0
Plant response rating, Morningglory (morningglory; [15]): 0
Morningglory plant response rating (morningglory; [25]): 0
Morningglory plant response rating (morningglory; [16]): 1
Morningglory plant response rating (morningglory; [17]): 5
Plant response rating, Morningglory (morningglory; [26]): 3
Ducksalad plant response rating (duck salad; [27]): 0
Ducksalad plant response rating (duck salad; [23]): 3
Ducksalad plant response rating (duck salad; [28]): 0
Ducksalad plant response rating (duck salad; [29]): 2
Ducksalad plant response rating (duck salad; flood test, listed under Postemergence, Rate 250 g/ha, scale 0 to 10, 0 no effect, 10 complete control): 2
Rice plant response rating (rice; [27]): 0
Rice plant response rating (rice; [23]): 0
Rice plant response rating (rice; [28]): 0
Plant response rating, Rice (rice; Rate 250 g/ha, Postemergence (flood test), scale 0 to 10, 0 is no effect, 10 is complete control): 0
Rice plant response rating (rice; [29]): 0
Giant foxtail plant response rating (giant foxtail; [2]): 0
Giant foxtail plant response rating (giant foxtail; [22]): 2
Giant foxtail plant response rating (giant foxtail; [23]): 2
Plant response rating, Giant foxtail (giant foxtail; [24]): 10
Plant response rating, Giant foxtail (giant foxtail; [15]): 10
Giant foxtail plant response rating (giant foxtail; [25]): 10
Giant foxtail plant response rating (giant foxtail; [16]): 0
Giant foxtail plant response rating (giant foxtail; [17]): 7
Plant response rating, Giant foxtail (giant foxtail; [26]): 10

CCC(CC)N(C(=O)n1oc(=O)n(-c2ccccc2C)c1=O)c1ccc(F)cc1 [Compound 193]
Morningglory plant response rating (morningglory; [14]): 0
Morningglory plant response rating (0 to 10 scale) (morningglory; [30]): 0
Morningglory plant response rating (morningglory; [31]): 0
Plant response rating, Morningglory (morningglory; [8]): 0
Morningglory plant response rating (morningglory; [16]): 0
Morningglory plant response rating (morningglory; [32]): 0
Plant response rating (0 to 10; 0 is no effect, 10 is complete control), Morningglory (morningglory; Rate 250 g/ha, Postemergence): 1
Morningglory plant response rating (morningglory; [33]): 2
Ducksalad plant response rating (duck salad; [18]): 0
Ducksalad plant response rating (duck salad; [19]): 0
Ducksalad plant response rating (duck salad; [20]): 0
Plant response rating, Ducksalad (duck salad; [34]): 0
Rice plant response rating (rice; [18]): 0
Rice plant response rating (rice; [19]): 0
Rice plant response rating (rice; [20]): 0
Plant response rating, Rice (rice; [34]): 0
Giant foxtail plant response rating (giant foxtail; [14]): 2
Giant foxtail plant response rating (0 to 10 scale) (giant foxtail; [30]): 4
Giant foxtail plant response rating (giant foxtail; [31]): 5
Plant response rating, Giant foxtail (giant foxtail; [8]): 6
Giant foxtail plant response rating (giant foxtail; [16]): 0
Giant foxtail plant response rating (giant foxtail; [32]): 0
Plant response rating (0 to 10; 0 is no effect, 10 is complete control), Giant foxtail (giant foxtail; Rate 250 g/ha, Postemergence): 0
Giant foxtail plant response rating (giant foxtail; [33]): 0

CC(C)N(C(=O)n1oc(=O)n(CCCl)c1=O)c1ccc(Cl)cc1 [Compound 474]
Morningglory plant response rating (morningglory; [35]): 1
Plant response rating, Morningglory (morningglory; [14]): 0
Plant response rating, Morningglory (morningglory; [6]): 0
Morningglory plant response rating (morningglory; [31]): 0
Morningglory plant response rating (morningglory; [36]): 0
Morningglory plant response rating (morningglory; [37]): 1
Morningglory plant response rating (morningglory; [38]): 1
Plant response rating, Ducksalad (0 to 10 scale, 0 is no effect, 10 is complete control) (duck salad; [9]): 0
Ducksalad plant response rating (0 to 10 scale, 0 is no effect, 10 is complete control) (duck salad; [10]): 0
Ducksalad plant response rating (duck salad; [11]): 0
Ducksalad plant response rating (duck salad; [21]): 0
Plant response rating, Rice (0 to 10 scale, 0 is no effect, 10 is complete control) (rice; [9]): 0
Rice plant response rating (0 to 10 scale, 0 is no effect, 10 is complete control) (rice; [10]): 0
Rice plant response rating (rice; [11]): 0
Rice plant response rating (rice; [21]): 0
Giant foxtail plant response rating (giant foxtail; [35]): 7
Giant foxtail plant response rating (giant foxtail; [4]): 8
Plant response rating, Giant foxtail (giant foxtail; [14]): 7
Plant response rating, Giant foxtail (giant foxtail; [6]): 10
Giant foxtail plant response rating (giant foxtail; [31]): 10
Giant foxtail plant response rating (giant foxtail; [36]): 10
Giant foxtail plant response rating (giant foxtail; [37]): 3
Giant foxtail plant response rating (giant foxtail; [38]): 6
